From patent US6867207B2, “IL-5 inhibiting 6-azauracil derivatives” (Janssen Pharmaceutica N.V., priority 1997, dated 2005) come the findings set out here.

Marks after values point to notes of the source that are not given here.

The first test relates to IL-5 production. Briefly: In vitro inhibition of IL-5 production in human blood (phytohemagglutinin-stimulated whole blood, ELISA). As to conditions: test dose 1×10^−5 M (values marked *), 48 hours. The test is classed as cell-based. Put shortly:
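Percent inhibition of IL-5, quantified by ELISA in cell-free supernatants, is given at a single dose of 1×10^−6 M (or 1×10^−5 M). Threefold-diluted human whole blood from healthy men received compound for 60 min at 37° C before 48 h PHA stimulation at 2 μg/mL.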
As to `O=c1cnn(-c2ccc(C(Sc3nc4ccccc4[nH]3)c3ccc(Cl)cc3)c(Cl)c2)c(=O)[nH]1` (racemic) [Compound 52], the “% inh. (percentage inhibition of IL-5 production), marked with *” value was 57* %.

As for `Cn1cnnc1SC(c1ccc(Cl)cc1)c1ccc(-n2ncc(=O)[nH]c2=O)cc1Cl` (racemic) [Compound 53], the “% inh. (percentage inhibition of IL-5 production), marked with *” value is on record as 53* %.

For the molecule `Cc1cc(O)nc(SC(c2ccc(Cl)cc2)c2ccc(-n3ncc(=O)[nH]c3=O)cc2Cl)n1` (racemic) [Compound 60], the “% inh. (percentage inhibition of IL-5 production), marked with *” value is 24* %.

Staying with this test, now noted: test dose 1×10^−5 M (values marked *), 48 hours, read-out: % inh. (percentage inhibition of IL-5 production), marked with *.
For `O=c1cnn(-c2ccc(C(c3ccc(Cl)cc3)N3CCC(O)CC3)c(Cl)c2)c(=O)[nH]1` (racemic) [Compound 119, (±)-2-[3-chloro-4-[(4-chlorophenyl)(4-hydroxy-1-piperidinyl)methyl]phenyl]-1,2,4-triazine-3,5(2H,4H)-dione], the inhibition at 10 µM worked out at 72%.

Still in this test, the particulars now being: test dose 1×10^−6 M, 48 hours.
In the case of `CN(C)CCSC(c1ccc(Cl)cc1)c1ccc(-n2ncc(=O)[nH]c2=O)cc1Cl` (racemic) [Compound 54], the “% inh. (percentage inhibition of IL-5 production)” value came out at 14%.

`O=c1cnn(-c2ccc(C(Sc3nc[nH]n3)c3ccc(Cl)cc3)c(Cl)c2)c(=O)[nH]1` (racemic) [Compound 55]: the “% inh. (percentage inhibition of IL-5 production)” value is reported as 26%.

Consider `Cc1nnc(SC(c2ccc(Cl)cc2)c2ccc(-n3ncc(=O)[nH]c3=O)cc2Cl)s1` (racemic) [Compound 56], for which the “% inh. (percentage inhibition of IL-5 production)” value was found to be 41%.

For the molecule `O=c1cnn(-c2ccc(C(Sc3ccc(F)cc3)c3ccc(Cl)cc3)c(Cl)c2)c(=O)[nH]1` (racemic) [Compound 57], the “% inh. (percentage inhibition of IL-5 production)” value was found to be 50%.

`Cn1ccnc1SC(c1ccc(Cl)cc1)c1ccc(-n2ncc(=O)[nH]c2=O)cc1Cl` (racemic) [Compound 58]: the “% inh. (percentage inhibition of IL-5 production)” value came to 5%.

With `Nc1ccc(SC(c2ccc(Cl)cc2)c2ccc(-n3ncc(=O)[nH]c3=O)cc2Cl)cc1` (racemic) [Compound 59], the “% inh. (percentage inhibition of IL-5 production)” value is reported as 76%.

Take `O.O=c1cnn(-c2ccc(C(Sc3nccc(O)n3)c3ccc(Cl)cc3)c(Cl)c2)c(=O)[nH]1` (racemic) [Compound 61]: the “% inh. (percentage inhibition of IL-5 production)” value is on record as 14%.

Take `Cc1ccc2[nH]c(SC(c3ccc(Cl)cc3)c3ccc(-n4ncc(=O)[nH]c4=O)cc3Cl)nc2c1` (racemic) [Compound 62]: the “% inh. (percentage inhibition of IL-5 production)” value amounted to 30%.

Regarding `O=c1cnn(-c2ccc(C(Sc3nccs3)c3ccc(Cl)cc3)c(Cl)c2)c(=O)[nH]1` (racemic) [Compound 63], the “% inh. (percentage inhibition of IL-5 production)” value is 68%.

Take `O=c1cnn(-c2ccc(C(SCc3ccco3)c3ccc(Cl)cc3)c(Cl)c2)c(=O)[nH]1` (racemic) [Compound 64]: the “% inh. (percentage inhibition of IL-5 production)” value was determined as 64%.

Consider `O=c1cnn(-c2ccc(C(Sc3ccncc3)c3ccc(Cl)cc3)c(Cl)c2)c(=O)[nH]1` (racemic) [Compound 65], for which the “% inh. (percentage inhibition of IL-5 production)” value turned out to be 50%.

In the case of `Cc1cc(C)nc(SC(c2ccc(Cl)cc2)c2ccc(-n3ncc(=O)[nH]c3=O)cc2Cl)n1` (racemic) [Compound 66], the “% inh. (percentage inhibition of IL-5 production)” value was 64%.

Take `O=c1cnn(-c2ccc(C(SCc3ccc(Cl)cc3)c3ccc(Cl)cc3)c(Cl)c2)c(=O)[nH]1` (racemic) [Compound 67]: the “% inh. (percentage inhibition of IL-5 production)” value is listed as 69%.

`Nc1cc(SC(c2ccc(Cl)cc2)c2ccc(-n3ncc(=O)[nH]c3=O)cc2Cl)nc(N)n1` (racemic) [Compound 68]: the “% inh. (percentage inhibition of IL-5 production)” value is 60%.

In the case of `Nc1cc(N)nc(SC(c2ccc(Cl)cc2)c2ccc(-n3ncc(=O)[nH]c3=O)cc2Cl)n1` (racemic) [Compound 70], the “% inh. (percentage inhibition of IL-5 production)” value was determined as 51%.

For `O=c1cnn(-c2ccc(C(Sc3nc4ccccc4o3)c3ccc(Cl)cc3)c(Cl)c2)c(=O)[nH]1` (racemic) [Compound 71], the “% inh. (percentage inhibition of IL-5 production)” value is listed as 84%.

In the case of `O=c1cnn(-c2ccc(C(Sc3cccc[n+]3[O-])c3ccc(Cl)cc3)c(Cl)c2)c(=O)[nH]1` (racemic) [Compound 73], the “% inh. (percentage inhibition of IL-5 production)” value turned out to be 21%.

Take `O=c1cnn(-c2ccc(C(Sc3ncnc4[nH]ncc34)c3ccc(Cl)cc3)c(Cl)c2)c(=O)[nH]1` (racemic) [Compound 74]: the “% inh. (percentage inhibition of IL-5 production)” value is on record as 69%.

Consider `Cc1ccnc(SC(c2ccc(Cl)cc2)c2ccc(-n3ncc(=O)[nH]c3=O)cc2Cl)n1` (racemic) [Compound 75], for which the “% inh. (percentage inhibition of IL-5 production)” value came to 72%.

Turning to `CCOC(=O)CSC(c1ccc(Cl)cc1)c1ccc(-n2ncc(=O)[nH]c2=O)cc1Cl` (racemic) [Compound 76], the “% inh. (percentage inhibition of IL-5 production)” value is 2%.

`O=c1cnn(-c2ccc(C(Sc3nc4ccccc4s3)c3ccc(Cl)cc3)c(Cl)c2)c(=O)[nH]1` (racemic) [Compound 77]: the “% inh. (percentage inhibition of IL-5 production)” value was determined as 65%.

With `O=c1cnn(-c2ccc(C(SC3=NCCS3)c3ccc(Cl)cc3)c(Cl)c2)c(=O)[nH]1` (racemic) [Compound 78], the “% inh. (percentage inhibition of IL-5 production)” value turned out to be 70%.

In the case of `COc1ccc(-c2ccnc(SC(c3ccc(Cl)cc3)c3ccc(-n4ncc(=O)[nH]c4=O)cc3Cl)n2)cc1` (racemic) [Compound 79], the “% inh. (percentage inhibition of IL-5 production)” value was 74%.

For the molecule `O=c1cnn(-c2ccc(C(Sc3nc4cccnc4s3)c3ccc(Cl)cc3)c(Cl)c2)c(=O)[nH]1` (racemic) [Compound 81], the “% inh. (percentage inhibition of IL-5 production)” value worked out at 76%.

For `COCc1cc(O)nc(SC(c2ccc(Cl)cc2)c2ccc(-n3ncc(=O)[nH]c3=O)cc2Cl)n1` (racemic) [Compound 82], the “% inh. (percentage inhibition of IL-5 production)” value stood at 19%.

For `Cn1ccnc1C(O)(c1ccc(Cl)cc1)c1ccc(-n2ncc(=O)[nH]c2=O)cc1Cl.O` (racemic) [Compound 120, (±)-2-[3-chloro[4-[(4-chlorophenyl)hydroxy(1-methyl-1H-imidazol-2-yl)methyl]phenyl]-1,2,4-triazine-3,5(2H,4H)-dione monohydrate], the “% inh. (percentage inhibition of IL-5 production)” value amounted to 10%.

In the case of `O=c1cnn(-c2ccc(C(c3ccc(Cl)cc3)c3nc(-c4ccccc4)no3)c(Cl)c2)c(=O)[nH]1` (racemic) [Compound 125, (±)-2-[(3-chloro-4-[(4-chlorophenyl)(3-phenyl-1,2,4-oxadiazol-5-yl)methyl]phenyl]-1,2,4-triazine-3,5(2H,4H)-dione], the “% inh. (percentage inhibition of IL-5 production)” value was 52%.

Regarding `O=c1cnn(-c2cc(Cl)c(C(c3ccc(Cl)cc3)c3nnc(-c4ccccc4)o3)c(Cl)c2)c(=O)[nH]1` (racemic) [Compound 127, (±)-2-[3,5-dichloro-4-[(4-chlorophenyl)(5-phenyl-1,3,4-oxadizol-2-yl)methyl]-phenyl]-1,2,4-triazine-3,5(2H,4H)-dione], the “% inh. (percentage inhibition of IL-5 production)” value is listed as 94%.

The same test, now with this note: test dose 1×10^−6 M, 48 hours, read-out: % inh. (percentage inhibition of IL-5 production).
For the molecule `O=c1cnn(-c2ccc(C(Sc3ccccn3)c3ccc(Cl)cc3)c(Cl)c2)c(=O)[nH]1` (racemic) [Compound 93, (±)-2-[3-chloro-4-[(4-chlorophenyl)(2-pyridinyl-thio)methyl]phenyl]-1,2,4-triazine-3,5(2H,4H)-dione], the inhibition at 1 µM is 86%.

With `O=c1cnn(-c2ccc(C(Sc3ncc[nH]3)c3ccc(Cl)cc3)c(Cl)c2)c(=O)[nH]1` (racemic) [Compound 94, (±)-2-[3-chloro-4-[(4-chlorophenyl)(1H-imidazol-2-ylthio)methyl]phenyl]-1,2,4-triazine-3,5(2H,4H)-dione], the inhibition at 1 µM worked out at 18%.

With `CCNC(CSC(c1ccc(Cl)cc1)c1ccc(-n2ncc(=O)[nH]c2=O)cc1Cl)C(=O)O` (racemic) [Compound 95, (±)-ethyl α-[[[(4-chlorophenyl)[2-chloro-4-(4,5-dihydro-3,5-dioxo-1,2,4-triazin-2(3H)-yl)phenyl]methyl]thio]methyl]glycine], the inhibition at 1 µM worked out at 17%.

As for `CN1CCN(C(c2ccc(Cl)cc2)c2ccc(-n3ncc(=O)[nH]c3=O)cc2Cl)CC1` (racemic) [Compound 118, (±)-2-[3-chloro-4-[(4-chlorophenyl)(4-methyl-1-piperazinyl)methyl]phenyl]-1,2,4-triazine-3,5(2H,4H)-dione], the inhibition at 1 µM is 34%.

Consider `Cn1ccnc1C(c1ccc(Cl)cc1)c1ccc(-n2ncc(=O)[nH]c2=O)cc1Cl` (racemic) [Compound 123, (±)-2-[3-chloro-4-[(4-chlorophenyl)(1-methyl-1H-imidazol-2-yl)methyl]phenyl]-1,2,4-triazine-3,5(2H,4H)-dione], for which the inhibition at 1 µM was 13%.

As for `O=c1cnn(-c2ccc(C(c3ccc(Cl)cc3)c3cccnc3)c(Cl)c2)c(=O)[nH]1` (racemic) [Compound 124, (±)-2-[3-chloro-4-[(4-chlorophenyl)-3-pyridinylmethyl]phenyl]-1,2,4-triazine-3,5(2H,4H)-dione], the inhibition at 1 µM was found to be 42%.

For `Cc1nc(C(c2ccc(Cl)cc2)c2ccc(-n3ncc(=O)[nH]c3=O)cc2Cl)no1` (racemic) [Compound 126, (±)-2-[3-chloro-4-[(4-chlorophenyl)(5-methyl-1,2,4-oxadiazol-3-yl)methyl]phenyl]-1,2,4-triazine-3,5(2H,4H)-dione], the inhibition at 1 µM is 40%.

With `O=c1cnn(-c2ccc(C(c3ccc(Cl)cc3)c3nc4ccccc4s3)c(Cl)c2)c(=O)[nH]1` (racemic) [Compound 130, (±)-2-[4-[2-benzothiazolyl-(4-chlorophenyl)methyl]-3-chlorophenyl]-1,2,4-triazine-3,5(2H,4H)-dione], the inhibition at 1 µM was determined as 70%.

Take `O=c1cnn(-c2ccc(C(c3ccc(Cl)cc3)c3nc4ccccc4o3)c(Cl)c2)c(=O)[nH]1` (racemic) [Compound 131, (±)-2-[4-[2-benzoxazolyl(4-chlorophenyl)methyl]-3-chlorophenyl]-1,2,4-triazine-3,5(2H,4H)-dione]: the inhibition at 1 µM stood at 76%.
